Reference: patent publication US10111819B2 (The Procter & Gamble Company, priority 2015, dated 2018)

Tests used:
human TRPV1 receptor = biological target: T1, human TRPV1 receptor (Homo sapiens, UniProt Q8NER1, M315I/T336M); assay: FLIPR calcium flux, antagonists to CPC activation of TRPV1; assay type: cell-based; details: for Ca count CPC TRPV1 Receptor Antagonist / % inhibition of CPC activation: compound 1 mM (0.04% for extracts); for Ca count CPC TRPV1 Receptor Antagonist: 30 min preincubation, then CPC 100 uM; for inhibition at 1000 µM: read-out: % inhibition of CPC activation; for % inhibition of CPC activation: TRPV1, CPC 100 uM
T1 construct: expressed in transfected cells; host or cells: HEK-293
Protocol: HEK-293 (human embryonic kidney) cells stably transfected with human TRPV1 receptor (SEQ ID NO. 1) were grown in 15 ml growth medium [high glucose DMEM (Dulbecco's Modification of Eagle's Medium) supplemented with 10% FBS (fetal bovine serum)], 100 μg/ml Penicillin/streptomycin, 100 μg/ml G418] in a 75 Cm^2 flask for 3 days at 33° C. in a mammalian cell culture incubator set at 5% CO2. Cells were detached with addition of 10 ml of PBS (phosphate buffered saline) by hand shaking gently. Cells were transferred to a 50 ml tube and centrifuged at 850 rpm for 3 minutes to remove PBS. After centrifugation, a pellet of cells is formed in the bottom of the tube separating them from the supernatant solution. The supernatant was discarded and the cell pellet is suspended in 1 ml of fresh growth medium to which 5 μl (12.5 μg) of Fluo-4 AM (Molecular Probes, Inc.) calcium indicator was added and incubated for 30 min with gentle shaking. Fluo-4 AM is a fluorescent dye used for quantifying cellular Ca^2+ concentrations in the 100 nM to […] range. At the end of the 30 minutes, 45 ml of assay buffer [1×HBSS (Hank's Balanced Salt Solution), 20 mM HEPES (4-(2-Hydroxyethyl)-1-piperazineethanesulfonic acid)] was added to wash cells and the resulting combination is then centrifuged at 850 rpm for 3 minutes to remove excess buffer and Fluo-4 AM calcium indicator; following centrifugation the assay buffer was removed. The pelleted cells were re-suspended in 10 ml assay buffer and 90 μl aliquots (˜50,000 cells) per well delivered to a 96-well assay plate containing compounds (final concentration 1 mM for pure compounds, 0.04% for extracts) or buffer control and incubated at room temperature for 30 minutes. After 30 minutes, the plate was placed into a fluorometric imaging plate reader (FLIPR^TETRA from Molecular Devices) and basal fluorescence recorded (excitation wave length 488 nm and emission wave length 510 nm). The FLIPR assay is an accepted method for detecting changes in intracellular calcium concentration. […] For determining the direct effect of test compounds on TRPV1 receptor, fluorescence was measured immediately after addition of each compound.

human TRPA1 receptor = biological target: T2, human TRPA1 receptor (Homo sapiens, UniProt O75762, K186N/R3C/R58T); assay: FLIPR calcium flux, antagonists to CPC activation of TRPA1; assay type: cell-based; details: for Ca count CPC TRPA1 Receptor Antagonist / % inhibition of CPC activation: compound 1 mM (0.04% for extracts); for Ca count CPC TRPA1 Receptor Antagonist: 30 min preincubation, then CPC 100 uM; for inhibition at 1000 µM: read-out: % inhibition of CPC activation; for % inhibition of CPC activation: TRPA1, CPC 100 uM
T2 construct: expressed in transfected cells; host or cells: HEK-293
Protocol: HEK-293 (human embryonic kidney) cells stably transfected with human TRPA1 receptor (SEQ ID NO. 2) were grown in 15 ml growth medium [high glucose DMEM (Dulbecco's Modification of Eagle's Medium) supplemented with 10% FBS (fetal bovine serum)], 100 μg/ml Penicillin/streptomycin, 100 μg/ml G418] in a 75 Cm^2 flask for 3 days at 37° C. in a mammalian cell culture incubator set at 5% CO2. Cells were detached with addition of 10 ml of PBS (phosphate buffered saline) by gentle hand shaking. Cells were transferred to a 50 ml tube and centrifuged at 850 rpm for 3 minutes to remove PBS. After centrifugation, a pellet of cells was formed in the bottom of the tube separating them from the supernatant solution. The supernatant was discarded and the cell pellet suspended in 1 ml of fresh growth medium to which 5 μl (12.5 μg) of Fluo-4 AM (Molecular Probes, Inc., Grand Island, N.Y.) calcium indicator was added and incubated for 30 min with gentle shaking. Fluo-4 AM is a fluorescent dye used for quantifying cellular Ca^2+ concentrations in the 100 nM to 1 microM range. At the end of the 30 minutes, 45 ml of assay buffer [1×HBSS (Hank's Balanced Salt Solution), 20 mM HEPES (4-(2-Hydroxyethyl)-1-piperazineethanesulfonic acid)] was added to wash cells and the resulting combination was then centrifuged at 850 rpm for 3 minutes to remove excess buffer and Fluo-4 AM calcium indicator; following centrifugation the assay buffer was removed. The pellet cells were re-suspended in 10 ml assay buffer and 90 μl aliquots (˜50,000 cells) per well delivered to a 96-well assay plate containing compounds (final concentration 1 mM for pure compounds, 0.04% for extracts) or buffer control and incubated at room temperature for 30 minutes. After 30 minutes, the plate was placed into a fluorometric imaging plate reader (FLIPR^TETRA from Molecular Devices, Sunnyvale, Calif.) and basal fluorescence recorded (excitation wave length 488 nm and emission wave length 510 nm). The FLIPR assay is an accepted method for detecting changes in intracellular calcium concentration. […] For determining the direct effect of test compounds on TRPA1 receptor, fluorescence was measured immediately after addition of each compound.

[1] = concentration level where the cooling effect can be clearly recognized; cited from earlier work

T2 sequence (O75762 whole entry R3C/R58T/K186N): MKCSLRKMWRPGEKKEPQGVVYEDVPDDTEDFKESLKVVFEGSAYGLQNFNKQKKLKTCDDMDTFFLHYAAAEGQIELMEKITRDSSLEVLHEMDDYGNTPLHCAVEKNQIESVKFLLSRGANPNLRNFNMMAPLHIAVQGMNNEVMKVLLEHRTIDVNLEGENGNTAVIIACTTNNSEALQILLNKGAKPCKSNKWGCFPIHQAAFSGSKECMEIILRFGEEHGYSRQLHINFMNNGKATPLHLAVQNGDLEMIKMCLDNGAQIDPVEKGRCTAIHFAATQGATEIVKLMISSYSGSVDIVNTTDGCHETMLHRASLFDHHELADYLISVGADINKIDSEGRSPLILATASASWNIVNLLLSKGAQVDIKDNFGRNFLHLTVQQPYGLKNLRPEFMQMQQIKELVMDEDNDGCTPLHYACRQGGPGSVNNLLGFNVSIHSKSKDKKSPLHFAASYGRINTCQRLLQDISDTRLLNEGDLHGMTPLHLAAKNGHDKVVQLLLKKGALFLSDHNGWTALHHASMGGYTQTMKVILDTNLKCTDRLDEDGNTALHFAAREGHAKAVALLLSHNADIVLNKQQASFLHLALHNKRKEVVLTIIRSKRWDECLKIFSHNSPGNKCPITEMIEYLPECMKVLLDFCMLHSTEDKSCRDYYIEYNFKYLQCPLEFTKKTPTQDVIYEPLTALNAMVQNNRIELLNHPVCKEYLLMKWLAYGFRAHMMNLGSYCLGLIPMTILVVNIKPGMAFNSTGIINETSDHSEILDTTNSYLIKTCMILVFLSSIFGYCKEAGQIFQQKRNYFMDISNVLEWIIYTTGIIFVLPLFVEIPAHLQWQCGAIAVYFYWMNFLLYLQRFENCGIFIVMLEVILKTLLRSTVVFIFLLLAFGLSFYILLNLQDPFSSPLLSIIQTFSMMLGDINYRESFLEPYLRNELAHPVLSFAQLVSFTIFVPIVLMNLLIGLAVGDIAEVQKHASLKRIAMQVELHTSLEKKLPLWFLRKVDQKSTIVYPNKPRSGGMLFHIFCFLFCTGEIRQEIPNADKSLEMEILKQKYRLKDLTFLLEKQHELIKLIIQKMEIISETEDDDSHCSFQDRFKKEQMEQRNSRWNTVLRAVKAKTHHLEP
T1 sequence (Q8NER1 whole entry M315I/T336M): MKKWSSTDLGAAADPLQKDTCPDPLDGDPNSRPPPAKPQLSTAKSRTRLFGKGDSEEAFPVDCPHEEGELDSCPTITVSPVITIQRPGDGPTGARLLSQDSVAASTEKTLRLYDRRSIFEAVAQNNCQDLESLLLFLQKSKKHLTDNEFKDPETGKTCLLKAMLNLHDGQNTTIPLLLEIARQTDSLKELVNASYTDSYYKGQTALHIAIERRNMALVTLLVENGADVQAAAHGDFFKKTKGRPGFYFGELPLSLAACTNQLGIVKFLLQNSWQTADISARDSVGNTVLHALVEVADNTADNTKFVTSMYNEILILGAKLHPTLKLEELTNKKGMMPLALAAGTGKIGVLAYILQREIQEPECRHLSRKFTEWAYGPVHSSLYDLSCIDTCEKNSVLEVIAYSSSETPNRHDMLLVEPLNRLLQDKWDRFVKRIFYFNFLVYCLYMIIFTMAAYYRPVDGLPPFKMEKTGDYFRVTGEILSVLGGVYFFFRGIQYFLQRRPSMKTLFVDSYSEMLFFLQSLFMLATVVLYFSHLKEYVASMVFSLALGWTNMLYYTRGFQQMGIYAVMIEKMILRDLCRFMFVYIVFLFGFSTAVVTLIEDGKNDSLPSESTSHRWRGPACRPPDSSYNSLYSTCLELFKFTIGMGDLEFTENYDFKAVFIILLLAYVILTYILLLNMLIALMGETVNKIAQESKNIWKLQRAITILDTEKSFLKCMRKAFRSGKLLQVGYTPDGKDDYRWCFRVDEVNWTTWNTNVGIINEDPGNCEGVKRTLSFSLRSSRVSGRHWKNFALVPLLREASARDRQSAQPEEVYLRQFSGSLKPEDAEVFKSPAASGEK

Molecule	Ca count CPC TRPV1 Receptor Antagonist (human TRPV1 receptor)	inhibition at 1000 µM (human TRPV1 receptor)	Ca count CPC TRPA1 Receptor Antagonist (human TRPA1 receptor)	also measured
CC(=O)CCc1ccc(O)cc1 [4-(4-Hydroxy-phenyl)-butan-2-one]	1127 count	67.8%		
Nc1ccccc1C(=O)Oc1ccc2ccccc2c1 [2-Aminobenzoic Acid Naphthalen-2-Yl Ester]	4172 count	38.3%		
NCCc1ccc(O)cc1 [Uteramine]	1093 count	68.8%		
O=C(OC[C@H]1O[C@@H](OC(=O)c2cc(O)c(O)c(OC(=O)c3cc(O)c(O)c(O)c3)c2)[C@H](OC(=O)c2cc(O)c(O)c(OC(=O)c3cc(O)c(O)c(O)c3)c2)[C@@H](OC(=O)c2cc(O)c(O)c(OC(=O)c3cc(O)c(O)c(O)c3)c2)[C@@H]1OC(=O)c1cc(O)c(O)c(OC(=O)c2cc(O)c(O)c(O)c2)c1)c1cc(O)c(O)c(OC(=O)c2cc(O)c(O)c(O)c2)c1 [Tannic Acid]			321 count	inhibition at 1000 µM (human TRPA1 receptor): 95.3%
CCCCCCCCCCOC(C)=O [Decyl Acetate]	2079 count	60.2%		
CC(C)[C@@H]1CC[C@@H](C)C[C@H]1O [L-menthol]				cooling threshold [1]: about 800 ppb
O=S(=O)([O-])[O-].[Mg+2] [Magnesium sulfate]				% inhibition of CPC activation (human TRPV1 receptor): 88.1%
CC1=C(/C=C/C(C)O)C(C)(C)CCC1 (stereo not drawn) [beta-Ionol]	1265 count			% inhibition of CPC activation (human TRPV1 receptor): 65.9%
CCCCOC(=O)C(C)C [Butyl Isobutyrate]	1504 count	57%		
CCCOC(=O)c1cc(O)c(O)c(O)c1 [n-propyl gallate]			1844 count	inhibition at 1000 µM (human TRPA1 receptor): 65.6%
Cc1occc(=O)c1OC(=O)C(C)C [Maltyl Isobutyrate]			2882 count	% inhibition of CPC activation (human TRPA1 receptor): 46.3%
CC1CCC(C(C)(C)S)C(=O)C1 (centres unmarked) [P-mentha-8-thiol-3-one]			3513 count	% inhibition of CPC activation (human TRPA1 receptor): 48.3%
CC1(C)C2CC=C(CO)C1C2 (centres unmarked) [Myrtenol]			440 count	% inhibition of CPC activation (human TRPA1 receptor): 86.04%; % inhibition of CPC activation (human TRPA1 receptor; listed as myrtenol): 86%
OC[C@H]1O[C@@H]2O[C@H]3[C@H](O)[C@@H](O)[C@@H](O[C@H]4[C@H](O)[C@@H](O)[C@@H](O[C@H]5[C@H](O)[C@@H](O)[C@@H](O[C@H]6[C@H](O)[C@@H](O)[C@@H](O[C@H]7[C@H](O)[C@@H](O)[C@@H](O[C@H]8[C@H](O)[C@@H](O)[C@@H](O[C@H]1[C@H](O)[C@H]2O)O[C@@H]8CO)O[C@@H]7CO)O[C@@H]6CO)O[C@@H]5CO)O[C@@H]4CO)O[C@@H]3CO [beta-Cyclodextrin]			2324 count	inhibition at 1000 µM (human TRPA1 receptor): 56.7%
CCCC(=O)OC(C)(C)Cc1ccccc1 [Alpha,Alpha-Dimethylphenethyl Butyrate]	4246 count	45.2%		
COC(=O)CCCc1ccccc1 [Methyl 4-Phenylbutyrate]	3469 count	43.6%		
CC(C)[C@@H]1CC[C@@H](C)C[C@@H]1O [Rinse 1-neomenthol, 1-neomenthol]				cooling threshold [1]: about 3,000 ppb
COc1ccc(CCC(C)=O)cc1 [4-(4-Methoxyphenyl)-2-butanone]	1218 count	55.2%		
Manganese Citrate			4553 count	% inhibition of CPC activation (human TRPA1 receptor): 52.2%
CCCCCC=CC(C)=O [3-Nonen-2-one]	3470 count	43.6%		
CC(C)[C@@H]1CC[C@@H](C)C[C@@H]1O [d-neomenthol]				cooling threshold [1]: about 25,000 ppb
Manganese Gluconate			2234 count	% inhibition of CPC activation (human TRPA1 receptor): 67.2%
CC1=CCCC(C)(C)C1/C=C/C(C)O (stereo not drawn) [alpha-Ionol]	2620 count			% inhibition of CPC activation (human TRPV1 receptor): 66.2%
CC(=O)[O-].CC(=O)[O-].[Zn+2] [Zinc Acetate]	1351 count			% inhibition of CPC activation (human TRPV1 receptor): 89.8%
CCCCCC=CC(=O)O [2-Octenoic Acid, Predominantly Trans, 2-Octenoic Acid]	2878 count	78.3%		
